Experimental findings from US20260286370A1, “METHODS FOR RAPID AGROBACTERIUM-MEDIATED SUNFLOWER STABLE TRANSFORMATION” (SYNGENTA CROP PROTECTION AG, priority 2023, published 2026) are described below.

What all share (assay type): in vivo, Helianthus annuus
For test [1], the system named is sunflower cotyledon explants. In words: Shoot induction rate of cotyledon explants with different plant hormone (conventional process). Conditions: conventional in vitro process. As for the experimental part:
The most efficient regeneration and transformation system reported using cotyledon as explants was evaluated.

The subject of test [2] is sunflower explants. Description: Transformation efficiency with different cytokinin in germination medium (Protocol V2). The conditions noted are these: variety F75400; for No. resistant shoot: hormone in germination medium: TDZ 4 mg/L (68 explants), BAP 5 mg/L (71 explants); for # of Resistant plants with GFP / Rate of resistant plants with GFP (%) / Resistant shoot rate: hormone in germination medium: TDZ 4 mg/L, BAP 5 mg/L. An excerpt:
Adding different cytokinin into germination medium can improve shoot induction rate and TF. The resistant plantlets were generated with normal shoots and roots, which was further confirmed by visualizing green fluorescent protein expression (GFP). (Experiment alias: SF-52-SP-24545, SF-66-SP-24545, SF-81-SP-24545; variety: F75400).

In test [3] the test system is sunflower explants from 1-day imbibed seeds. In words: Transformation efficiency with different concentration of TDZ in infection medium (Protocol V1). The conditions noted are these: for # of TaqMan Positive Events / TF: variety F75400, vector 24545. As for the experimental part: Agrobacterium from storage at −80° C. were streaked to YP (Yeast Peptone) medium with 100 mg/L spectinomycin and 50 mg/L kanamycin at least 3 days before infection. They were re-streaked to a new YP medium plate with some concentrations of spectinomycin and kanamycin 1 day before infection. The Agrobacterium were then collected and re-suspended in infection liquid medium (containing MS basal salts and B5 vitamins, sucrose 20 g/L, glucose 10 g/L, MES, 4 g/L, zeatin riboside 2 mg/L, 3-10 mg/L TDZ, 80 mg/L acetosyringone (AS), 150 mg/L dithiothreitol (DTT), pH=5.5). The concentration of the Agrobacterium was adjusted until OD660=0.6.
One cotyledon of the split germinated seeds was removed with a scalpel to expose the shoot apex with its two primary leaves. The two primary leaves were completely removed to expose the apical meristem and the apical region was gently wounded with the sharp end of a scalpel. The resultant explants were then placed in an Agrobacterium suspension and add 1/1000 10% F68; the suspension was then placed under vacuum at 800-900-mbar for 5-30 min followed by sonication at 45 kHz for 30-60s with gentle shaking. The explants were inoculated for 2-3 hours with the Agrobacterium with 50-80 rpm shaking.
After inoculation in (3), the Agrobacterium suspension was removed, and the explants were then placed onto a piece of filter paper in a petri dish which prewetted by 0.5 ml co-cultivation media (MS basal salts and vitamins, MS iron, zeatin 1 mg/L, sucrose 10 g/L, glucose 5 g/L, MES 2 g/L, acetosyringone 20 mg/L, silver nitrate 0.5 mg/L) with the adaxial side up. One side of the filter paper was covered, and the petri dish was sealed with parafilm. Approximately 10~20 explants were placed per petri dish. The explant and Agrobacterium were co-cultured for 4 days in low-illumination condition: PAR (photosynthetically active radiation) 40 μmol m−2 s−1 with 16/8 light/dark condition. The plate containing explants was covered with a steel tray in an incubator (PERVICAL® Scientific Chambers, Perry, IA). These conditions were chosen to increase infection and prevent embryo deterioration. The explants were then co-cultured at 22° C. in the dark for 3-6 days in growth chamber.
After co-culture, the explants were transferred onto SFR1 medium for shoot regeneration (Gamborg B5 basal salts and B5 vitamins, MS Iron 200×, sucrose 20 g/L, MES 1 g/L, timentin 150 mg/L, carbenicillin 150 mg/L, agar 7.5 g/L, lipoic acid-50 mM, BAP 1 mg/L). The SFR1 medium also contained a selection agent (i.e., spectinomycin 50-150 mg/L). The explants were allowed to culture on SFR1 media in the dark at 25° C. for 3-6 days, and then grown under light (16/8 light/dark) at 25° C. for 9-14 days. FIGS. 6A-D show formation of the primary shoots with GFP expression.
Different concentrations of TDZ in the infection medium were tested to assess if TDZ concentration impacts transformation (Experiment alias: SF-52-SP-24545, SF-66-SP-24545, SF-81-SP-24545; variety: F75400). The process of transformation with explants from 1-day imbibed seeds was as described above. TDZ was added in the infection medium during the infection process for 2-4 hours. A TDZ concentration of 3-10 mg/L was used.

The test system of test [4] is sunflower explants. In words: Transformation frequency by selection system (aadA or ALS selectable marker). Conditions: substance used as selection agent (aadA marker for spectinomycin, ALS marker for bensulfuron-methyl). An excerpt: As the Examples indicate, multiple transgenic-shoot structures were induced from infected explant tissues. Then the explants were shortly selected on selection media with selection agent (7-14 days, Spectinomycin as selection agent) and transplanted into soil to allow shoot and root development under controlled conditions (in growth chamber). From multiple experiments, transgenic events were successfully generated with aadA or ALS as selectable markers (spectinomycin and bensulfuron-methyl as selection agents respectively). The transformation frequency (TF) is 8.2% for spectinomycin selection, and 3.6% for bensulfuron-methyl selection system.

Test [5] concerns sunflower explants. Description: Resistant frequencies with different concentration of spectinomycin in selection medium (Protocol V2). The conditions noted are these: F75400. As for the experimental part: Transformed sunflower explants was transferred onto regeneration media by inserting cotyledon with meristem region into solid medium with a selection agent. Hypocotyl was left untouching the medium. The hypocotyl was covered with sterilized matrix and put the jar in 22° C., 16/8 h light/dark. The regeneration step lasted for 7-14 days. Specifically, after co-culture, the mature seeds were placed on regeneration medium as follows: cotyledon/meristem region was inserted into solid medium with a selection agent (100 mg/L spectinomycin), the hypocotyl was left upside (the whole seeds were upside down); the container was covered with sterilized matrix (soil mixture) and placed in growth chamber for inducing shooting and rooting simultaneously under short time selection (7-14 days).
Selection medium with spectinomycin 100-800 mg/L was tested. The resistant plantlets are generated with normal shoots and roots, further confirmed by visualizing GFP. […] (Experiment alias: SF-23-SP-24545; variety: F75400).

The mark [6] stands for this setting: TDZ 3 mg/L in infection medium, 65 explants.
The mark [7] stands for this setting: TDZ 4 mg/L in infection medium, 49 explants.
The mark [8] stands for this setting: TDZ 8 mg/L in infection medium, 42 explants.
Where [9] appears, read: TDZ 10 mg/L in infection medium, 37 explants.
Where [10] appears, read: spectinomycin 100 mg/L in selection medium, SF23A, 89 explants.
[11] abbreviates: spectinomycin 200 mg/L in selection medium, SF23B, 67 explants.
[12] abbreviates: spectinomycin 300 mg/L in selection medium, SF23C, 61 explants.
[13] abbreviates: spectinomycin 500 mg/L in selection medium, SF23D, 68 explants.
The mark [14] stands for this setting: spectinomycin 800 mg/L in selection medium, SF23E, 70 explants.

For the molecule `c1ccc(CNc2ncnc3nc[nH]c23)cc1` [BAP, 6-benzylaminopurine], the “Shoot induction rate (%)” value in test [1] was found to be 2%. In test [2], the No. resistant shoot is recorded as 6, the “# of Resistant plants with GFP” value is reported as 5, the “Rate of resistant plants with GFP (%)” value came to 7% and the Resistant shoot rate is listed as 8%.

In the case of `O=C(Nc1ccccc1)Nc1cnns1` [TDZ, 1-phenyl-3-(1,2,3-thiadiazol-5-yl)urea], in test [3] (setting [6]), the “# of TaqMan Positive Events” value came to 1 and the TF is reported as 1.5%. In test [3] (setting [7]), the “# of TaqMan Positive Events” value amounted to 4 and the TF is listed as 8.2%. In test [3] (setting [8]), the “# of TaqMan Positive Events” value is reported as 3 and the TF is 7.1%. In test [3] (setting [9]), the “# of TaqMan Positive Events” value came to 1 and the TF was determined as 2.7%. In addition, the “Effect on shoot induction rate and transformation efficiency” value in test [3] (TDZ 3-10 mg/L in infection medium for 2-4 hours) was “significantly improve shoot induction rate and transformation efficiency”. Besides, in test [2], the No. resistant shoot turned out to be 7, the “# of Resistant plants with GFP” value came to 5, the “Rate of resistant plants with GFP (%)” value amounted to 7% and the Resistant shoot rate turned out to be 10%.

As for `COC(=O)c1ccccc1CS(=O)(=O)NC(=O)Nc1nc(OC)cc(OC)n1` [bensulfuron-methyl], the “transformation frequency (TF)” value in test [4] amounted to 3.6%.

Take `CN[C@@H]1[C@H](O)[C@H](NC)[C@H]2O[C@@]3(O)C(=O)C[C@@H](C)O[C@H]3O[C@@H]2[C@H]1O` [Spectinomycin, spectinomycin]: the “Generation of resistant shoots” value in test [5] (all spectinomycin concentrations from 100 mg/L to 800 mg/L) is recorded as “generated resistant shoots”. In addition, the “# of Resistant plants with GFP” value in test [5] (setting [10]) was determined as 10; in test [5] (setting [11]) it was 6; in test [5] (setting [12]), 2; in test [5] (setting [13]), 2; in test [5] (setting [14]), 1. In addition, the “Rate of resistant plants with GFP (%)” value in test [5] (setting [10]) turned out to be 11%; in test [5] (setting [11]), 9%; in test [5] (setting [12]) it was 3%; in test [5] (setting [13]) it was 3%; in test [5] (setting [14]), 1%. In addition, the “Rooting rate (%)” value in test [5] (setting [10]) was 66%; in test [5] (setting [11]), 36%; in test [5] (setting [12]), 30%; in test [5] (setting [13]), 18%; in test [5] (setting [14]) it was 9%. In addition, the “Shooting Rate (%)” value in test [5] (setting [10]) came to 40%; in test [5] (setting [11]), 18%; in test [5] (setting [12]), 16%; in test [5] (setting [13]), 10%; in test [5] (setting [14]), 9%. In test [4], the “transformation frequency (TF)” value is 8.2%.
